Type in all cases: physicochemical
The nature of series [1]: Photostability protocol: thin film irradiated with xenon arc lamp. The note with it: 1 hour xenon arc lamp. In outline: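 A 3% solution in EtOH/triglyceride/alkyl benzoate is dried on glass slides into a liquid film of 1.5 mg compound. Films are irradiated 1 h with a Pyrex-filtered 150 W xenon arc lamp (about 100 MED, below 30° C). Washings are read by UV; stability is absorbance at λmax relative to unirradiated film.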

Series [2] in a line: Lens casting in CR-39 lens formulation. The note with it: benzoyl peroxide initiator, cured 70° C. 18 hours, 0.1 wt %. The protocol:
(§1) Two lens formulations were used. The first (CR-39) was composed of Di(ethylene glycol) bis(allylcarbonate) with 3% wt benzoyl peroxide as initiator. The second lens formulation (NK) was made up of 4 parts NK Ester BPE 100N (Ethoxylated Bisphenol A dimethacrylate) to 1 part NK Ester 9G (PEG 400 dimethacrylate) with 0.4 wt % AIBN as initiator.
(§2) Once the glue had dried the lens matrix (3 g of the lens matrix was treated with 3 mg of absorber, 0.1 wt % and stirred until dissolution complete. 3 g of the matrix was sufficient to prepare 3-4 lenses) was added via pipette to the interior until a convex meniscus was formed at the top of the O-ring. The mixture was then left to settle for 15 minutes during which time any bubbles formed were dispersed. A second microscope slide was then slowly rolled on top of the first to form a seal and expel any air. Taking care to maintain pressure the lens mould was then clamped at the sides with two “Bulldog” clips and cured in an oven at 70° C. for 18 hours. Once the curing process was complete the two microscope slides were separated and the lens removed from the O-ring before washing with acetone and drying/polishing with a soft tissue. The lenses thus formed were approximately 2 mm thick and 15 mm in diameter.
Of particular interest are compounds 163 and 164 which show an increase in λmax on constraining only the nitrogen substituent in a ring i.e. not the double bond. […] Additionally the dimethyl analogue 213 (structure in table 14) was also evaluated.

A short description of series [3]: Lens casting in NK ester lens formulation. As to conditions: AIBN initiator, cured 70° C. 18 hours, 0.1 wt %. The protocol:
as §1, §2

Series [4] in a line: PMMA film in QUV Weatherometer. The note with it: type A bulbs, 70° C. 8 hours then dark humid 50° C. 4 h. The procedure: In order to gauge longer term photostability, the PMMA film samples were evaluated in a QUV Weatherometer using type A bulbs with solar irradiance at 70° C. for 8 hours followed by heating in the dark under a humid atmosphere at 50° C. for 4 h. The film was then sandwiched between 2 glass slides to prevent deformation and irradiated. The samples were evaluated by a visual comparison and measurement of transmittance spectra. […] This clearly indicates the suitability of compounds of the first aspect to incorporation into polymeric matrices and films. The relevant transmission spectra are shown in FIG. 11 (142), FIG. 12 (143), FIG. 13 (164), FIG. 14 (213) and FIG. 15 (215) wherein in all of these figures the lower plateau line represents the result following radiation and the upper line prior to irradiation.

Series [5] can be described thus: UV absorbance spectrum in solution (λmax, λcrit, extinction coefficients). As to conditions: for λcrit: critical wavelength; for E (1%, 1 cm): mass extinction coefficient. In outline: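 Spectra taken on 0.001% solutions in methanol, 10 mm path. Breakthrough is the wavelength where transmittance rises above 1%; steepness is the nm span over which transmittance goes from 1 to 80%.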

A short description of series [6]: % transmission spectrum of 0.1% solution (breakthrough, steepness). As to conditions: for Steepness: distance in nm over which transmittance increases from 1 to 80%; for Breakthrough (1% T at 0.1%): value in nm where transmittance increases beyond 1%, 0.1% solution. The procedure, abridged:
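Transmission was recorded for 0.1% methanol solutions in a 2 mm cuvette. Breakthrough is the wavelength (nm) at which transmittance exceeds 1%; steepness is the nm span over which transmittance rises from 1 to 80%. Some values are averages of multiple measurements.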

Series [7] can be described thus: Solubility in the photostability test solution. As to conditions: printed in the photostability (or steepness) column. The source says: The properties of these compounds are shown in table 9 with comparator compounds. […] In both cases low solubility meant that photostability could not be measured. This would not preclude use of the compounds in many applications where solubility is not at issue.
In one embodiment, the compounds may provide for improved solubility or stability in standard compositions, including sunscreen compositions. Such solubility may be measured by generating, for example, a 3% solution of the relevant compound in 2:1:1 EtOH:capric/caprylic triglyceride:C12-C15 alkyl benzoate.
1 mL of a 3% solution of the test compound (30 mg of test compound in 1 mL solvent) was prepared in a solvent mix made up of 50% EtOH and 25% capric/caprylic triglyceride and 25% C12-C15 alkyl benzoate. 50 μL of this solution (containing 1.5 mg of test compound) was added carefully to the centre of a glass microscope slide and the volatile components left to evaporate in the dark for at least 3 hours to give a liquid film. The prepared films were then exposed for 1 hour to an Eimac 150 W xenon arc lamp filtered through Pyrex (15 Amp supply current, samples 19 cm from the lamp) previously allowed to warm up for 15 minutes prior to sample exposure. […] One hour's exposure represented a calculated radiation dose (using meter) of approximately 100 MED.

Series [8] can be described thus: Stability to epoxy resin curing. The note with it: 2 part epoxy resin, transmittance vs solution. The procedure:
In order to test the stability of a number of compounds to a typical epoxy resin curing system, epoxy adhesive packs were obtained (Parfix 5 minute everyday epoxy adhesive, 24 ml). This is a standard 2 part epoxy resin with the first part composed of a viscous Bisphenol-A/epichlorohydrin polymeric reaction product. The second part is a viscous 30% solution of an aminophenol hardener, T (shown below). Epoxy resins cured by 1° and 2° amines are also available.
To test the stability of the compounds to the curing conditions, a 0.1% wt (1 mg absorber per gram of resin) was prepared and added to a mould comprising a 2 mm thick viton o-ring super glued to a microscope slide. […] Due to difficulties in solubilising the compounds in the mixed resin/hardener in the limited working time as the resin cured; the two barrels of the application syringe were separated with a scalpel allowing the separate application of both parts of the resin system.
This was then mixed thoroughly and immediately added to the moulds as described above. […]

The mark [9] stands for this setting: molar extinction coefficient, in M-1 cm-1 (unit assumed).

“And” between values parts separate entries of the source, which are not always exact repeats. Equal values may be shown once. “Also recorded” adds a separate entry of the source.

Regarding `CCN(/C=C(\C(=O)C(F)(F)F)c1ccccc1)c1ccccc1` [Compound 142, 4-(ethyl(phenyl)amino)-1,1,1-trifluoro-3-phenylbut-3-en-2-one], the “Photostability (% remains)” value in series [1] is 91% and 99%. For the same compound, the Photostability in series [1] (ratio of absorbance at λmax irradiated vs unirradiated, ^a = average of multiple measurements) is reported as 99%. Further, the “Stability to lens casting conditions” value is “stable enough for such incorporation; also recorded: very little if any decomposition” in series [2] and “very little if any decomposition” in series [3]. Besides, the “Longer term photostability in PMMA film” value in series [4] is “little sign of decomposition after irradiation”.
In the case of `O=C(/C(=C\N(c1ccccc1)c1ccccc1)c1ccccc1)C(F)(F)F` [Compound 143, 4-(diphenylamino)-1,1,1-trifluoro-3-phenylbut-3-en-2-one], in series [5], the λmax stood at 351 nm; the λcrit was found to be 381 nm; the “E (1%, 1 cm)” value amounted to 760. Further, the ε in series [5] (UV, at λmax) came to 27893 M⁻¹ cm⁻¹. The ε in series [5] (setting [9]) worked out at 27893. For the same compound, in series [6], the Steepness is 32 nm and the “Breakthrough (1% T at 0.1%)” value is 402 nm. Moreover, in series [7], the “Solubility for photostability measurement” value is on record as “Not soluble”. In addition, the “Stability to lens casting conditions” value in series [2] is given as “stable enough for such incorporation; also recorded: very little if any decomposition”. Also, the “Stability to lens casting conditions” value in series [3] is listed as “very little if any decomposition”. The “Stability to epoxy resin curing” value in series [8] is listed as “little or no decomposition occurred”. Further, the “Longer term photostability in PMMA film” value in series [4] was “little sign of decomposition after irradiation”.
As to `CC1(C)CN(/C=C(\C(=O)C(F)(F)F)c2ccccc2)c2ccccc21` [Compound 213], in series [5], the λmax is 366 nm; the λcrit was found to be 389 nm; the “E (1%, 1 cm)” value was determined as 860. Further, the ε in series [5] (setting [9]) came to 29690. For the same compound, in series [6], the Steepness was 22 nm and the “Breakthrough (1% T at 0.1%)” value was 413 nm. Besides, the “Stability to lens casting conditions” value in series [2] is “stable enough for such incorporation; also recorded: good stability to the lens curing conditions”. The “Longer term photostability in PMMA film” value in series [4] is listed as “little sign of decomposition after irradiation”.
Regarding `N#CCC(=O)/C(=C\N1CCc2ccccc21)c1ccccc1` [Compound 249], in series [5], the λmax was found to be 361 nm; the λcrit is 361 nm; the “E (1%, 1 cm)” value came out at 1089. In series [5] (setting [9]), this compound registered a ε of 31385. Moreover, in series [6], the “Breakthrough (1% T at 0.1%)” value is 405 nm. Besides, the “Solubility for photostability measurement” value in series [7] is given as “Not soluble”.
